Experimental data: PubChem BioAssay (NCI)
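Protocol summary: plate cells (96-well), add compound at 5 concentrations, incubate 48 h, interpolate endpoints linearly. TGI: concentration producing complete growth inhibition.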

Experiments:
Assay in all cases: NCI-60 cell line screen, 48 h
[1] = system: A498 renal
[2] = system: BT-549 breast
[3] = system: CAKI-1 renal
[4] = system: HCC-2998 colon
[5] = system: HCT-116 colon
[6] = system: HS 578T breast
[7] = system: LOX IMVI melanoma
[8] = system: MCF7 breast
[9] = system: MDA-MB-435
[10] = system: NCI-H23 lung
[11] = system: OVCAR-3 ovarian
[12] = system: OVCAR-4 ovarian
[13] = system: OVCAR-5 ovarian
[14] = system: SN12C renal
[15] = system: SNB-19 CNS
[16] = system: UACC-257 melanoma

Compound	TGI [1] [µM]	TGI [2] [µM]	TGI [3] [µM]	TGI [4] [µM]	TGI [5] [µM]	TGI [6] [µM]	TGI [7] [µM]	TGI [8] [µM]	TGI [9] [µM]	TGI [10] [µM]	TGI [11] [µM]	TGI [12] [µM]	TGI [13] [µM]	TGI [14] [µM]	TGI [15] [µM]	TGI [16] [µM]
CC(C)(C)OC(=O)N/N=C(/N)Cc1ccccc1	> 100	> 100	> 100	> 100	> 100	> 100	> 100	> 100	> 100	> 100	> 100	> 100	> 100	> 100	> 100	> 100
c1ccc(C2OCC(OC3CCCCO3)CO2)cc1 (stereo not given)	> 100	> 100	> 100	> 100	> 100	> 100	> 100	> 100	> 100	> 100	> 100	> 100	> 100	> 100	> 100	> 100
O=C1NC(=O)C(COCc2ccccc2)C2=C1SCCC2 (stereo not given)	> 100	> 100	> 100	> 100	> 100	> 100	> 100	> 100	> 100	> 100	> 100	> 100	–	–	> 100	> 100
O=C(/C=C/c1ccccc1)CSc1nc2ccc(I)cc2c(=O)n1Cc1ccccc1	46.4	> 100	3.74	66.9	> 100	67.7	> 100	> 100	> 100	> 100	> 90.6	> 100	> 100	30.8	> 100	> 100
COC(=O)C1(Cc2ccc3c(c2)CCC3)Cc2ccc3c(c2C1)CCC3 (stereo not given)	72.2	56.9	79.2	> 100	54.8	45	32.9	31.4	39	4.63	60.1	99.1	–	56.3	–	30.3
Cc1cc2nc(-c3c(F)cccc3F)n(Cc3c(F)cccc3F)c2cc1C	39.9	27.9	37.7	21.4	24.4	46.7	27.4	57.1	32.8	39.9	31.8	40.1	31.7	33.5	42.7	30
c1ccc2c(c1)nc1n2C2CCC(C2)N1 (stereo not given)	> 10	> 10	> 10	> 10	> 10	> 10	> 10	> 10	> 10	> 10	> 10	> 10	> 10	> 10	> 10	> 10
O=C1Nc2ccccc2/C1=C/c1c(Cl)[nH]c2ccc(O)cc12	11.3	18.9	36	24.2	19.4	> 100	27.8	14.8	0.947	13.8	> 48.1	38.5	17.1	5.22	> 58.8	22.6
O=c1[nH]c(-c2ccccc2)nc2c1sc1nc3ccccc3n12	> 100	> 100	> 100	> 100	> 100	82.5	> 100	> 100	> 100	> 100	> 100	> 100	> 100	> 100	> 100	> 100
COC(=O)C1=C(C)NC(C)=C(C(=O)OC)C1c1cccc(NO)c1	> 100	32.5	26.1	> 100	26.4	64.4	29.9	38.5	30.9	33.8	29.5	27.8	30.1	32.9	> 100	27.5
COc1cccc(C2SCC(=O)N2c2ccc(-n3c(-c4ccccc4)nc4ccccc4c3=O)cc2)c1OC (stereo not given)	> 100	> 100	> 100	> 100	> 100	> 100	> 100	> 100	> 100	> 100	> 100	> 100	> 100	> 100	> 100	> 100
CCCCOCCOC1=CC(=O)c2c(O)ccc(O)c2C1=O	3	2.98	3.23	3.3	2.85	4.99	3.15	3.15	0.334	3.17	3.04	3.33	–	3.03	3.12	2.23
CCOC(=O)/C=C(\C(=O)OCC)n1ccc(=O)n(CC(=O)OCC)c1=O	31.7	29.1	1.68	32.2	3.44	53.7	5.23	9.73	16.4	28.1	12.5	> 31.2	10.1	9.38	36.7	24.2
COc1ccc(C2(O)c3ccccc3C(=O)N(C)C2(O)c2ccc(OC)cc2)cc1 (stereo not given)	> 100	> 100	> 100	> 100	> 100	29	> 100	> 100	42.2	> 100	> 100	> 100	> 100	> 100	> 100	> 100
O=C1C(=C(I)I)c2ccccc2-c2ccccc21	30.6	15.5	7.12	7.54	6.55	19.6	5.26	13.8	5.58	16.3	3.82	10.9	17.1	4.31	27.5	5.04
